Reference: US12297476B2, “Metallic nanoparticles and methods of making and using the same” (Saint Joseph's University, priority 2020, dated 2025)

Tested on: Medicago sativa cells
Conditions: 200 ppm (highest concentration), after two weeks of continuous growth in liquid medium
Experimental: To determine the IC50 of KAuCl4, the filter sterilized stock solution of KAuCl4 (prepared in deionized water) was added at different concentrations (10-200 ppm) to 20 mL culture having a cell density of 20,000 cells/mL and incubated on the shaker for 2 weeks. Culture aliquots (1 mL) were collected at an interval of 48 h, spun at 2000 rpm for 10 min, stained with phosphate buffered Trypan Blue, and dead cells were counted using a haemocytometer. Percentage of cell death was determined from the total cell number.

Question: How did the “cells eliminated from the culture (cell death)” value turn out when [Cl][Au-]([Cl])([Cl])[Cl].[K+] [KAuCl4, potassium gold chloride] was run?
Answer: 25%
